# Test results as given in patent US9695193B2, “Inhibitors of Plasmodium falciparum equilibrative nucleoside transporter type I as anti-parasitic compounds” (The Trustees of Columbia University in the City of New York, priority 2013, dated 2017).
# Molecular target: T1, PfENT1 (Plasmodium falciparum, UniProt Q8IDM6)
# T1 construct: expressed in transfected cells; host or cells: fui1Δ yeast (Saccharomyces cerevisiae), co-expressing GFP
# Format: cell-based
# Conditions: primary HTS, compounds at 10 μM, 125 μM 5-FUrd
# Method: A yeast-based high throughput screening (HTS) assay was used to identify compounds that inhibit PfENT1. The compounds described in this application were identified by screening four commercially available, chemical compound libraries obtained from Dr. Donald Landry's laboratory (Department of Medicine, Columbia University). These libraries contain approximately 80,000 unique chemical entities.
# In the primary screen the compounds were tested at a concentration of 10 μM. Hits were identified by the growth of fui1Δ yeast expressing PfENT1 and Green Fluorescent Protein (GFP) in the presence of the cytotoxic nucleoside 5-fluorouridine (5-FUrd). 5-FUrd is transported by PfENT1. PfENT1 expressing fui1Δ yeast will only grow in the presence of 125 μM 5-FUrd if a PfENT1 inhibitor blocks the uptake of 5-FUrd into the yeast. Significant yeast growth in the HTS in 384 well plates was determined by two criteria: 1) turbidity as determined by the optical density at 620 nm (OD620) and 2) GFP fluorescence intensity. […] Hits had to be positive by both criteria.
# T1 sequence (Q8IDM6 whole entry): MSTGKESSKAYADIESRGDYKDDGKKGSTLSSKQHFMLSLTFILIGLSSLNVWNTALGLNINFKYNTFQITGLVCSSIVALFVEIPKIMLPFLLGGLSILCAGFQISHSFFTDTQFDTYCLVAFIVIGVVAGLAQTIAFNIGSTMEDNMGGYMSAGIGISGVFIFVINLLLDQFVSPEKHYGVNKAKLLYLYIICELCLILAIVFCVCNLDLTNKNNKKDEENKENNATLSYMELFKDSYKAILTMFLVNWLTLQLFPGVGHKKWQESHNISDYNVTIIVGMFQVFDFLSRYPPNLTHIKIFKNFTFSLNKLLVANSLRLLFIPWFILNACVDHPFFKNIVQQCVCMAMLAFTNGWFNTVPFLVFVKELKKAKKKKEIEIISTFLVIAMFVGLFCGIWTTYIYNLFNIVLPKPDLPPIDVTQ
row,Structure (SMILES),Avg Normalized % maximal activity
1,"CNC(=O)c1nc(-c2ccc(Cl)cc2)no1 [compound 97, 3-(4-chlorophenyl)-N-methyl-1,2,4-oxadiazole-5-carboxamide]",4.86%
2,"COc1ccc(NC(=O)COc2ccc3ccc(=O)oc3c2)cc1 [compound 78, N-(4-methoxyphenyl)-2-[(2-oxo-2H-chromen-7-yl)oxy]acetamide]",6.16%
3,"Cc1cc(-c2ccccc2)nc(SCc2nc3ccccc3c(=O)[nH]2)n1 [compound 141, 2-{[(4-methyl-6-phenyl-2-pyrimidinyl)thio]methyl}-4(3H)-quinazolinone]",3.21%
4,"COc1ccc(-c2nc3ccccc3s2)cc1NC(=O)c1cccnc1 [compound 58, N-[5-(1,3-benzothiazol-2-yl)-2-methoxyphenyl] nicotinamide]",7.63%
5,"CCC(=O)Nc1cccc(-c2nnc(-c3ccccc3C)o2)c1 [compound 114, N-{3-[5-(2-methylphenyl)-1,3,4-oxadiazol-2-yl]phenyl} propanamide]",4.37%
6,"O=C(c1cc2nc3c(c(C(F)(F)F)n2n1)CCc1ccccc1-3)N1CCCC1 [compound 170, 10-(1-pyrrolidinyl-carbonyl)-7-(trifluoromethyl)-5,6-dihydrobenzo[h] pyrazolo[5,1-b] quinazoline]",1.74%
7,"COCc1cc(C)nc2sc(C(=O)Nc3ccc(C(=O)OC)cc3)c(N)c12 [compound 119, methyl 4-({[3-amino-4-(methoxymethyl)-6-methylthieno[2,3-b]pyridin-2-yl]carbonyl}amino)benzoate]",4.25%
8,"COc1cc(C(=O)Nc2ccc(C(=O)c3cccs3)cc2)cc(OC)c1OC [compound 138, 3,4,5-trimethoxy-N-[4-(2-thienylcarbonyl)phenyl]benzamide]",3.31%
9,"O=[N+]([O-])c1ccc(C2Nc3c(F)cccc3C3C=CCC32)cc1 (stereo not shown) [compound 164, 6-fluoro-4-(4-nitrophenyl)-3a,4,5,9b-tetrahydro-3H-cyclopenta[c]quinoline]",2.01%
10,"COc1ccc(-c2cnc3ccccc3n2)cc1NC(=O)c1ccco1 [compound 54, N-[2-methoxy-5-(2-quinoxalinyl)phenyl]-2-furamide]",7.83%
11,C[N+]1(C)C2CC(OC(=O)[C@H](CO)c3ccccc3)CC1C1OC12 (stereo partly shown) [compound 135],3.47%
12,CC(C(=O)O)c1ccc(-c2ccccc2)c(F)c1 (stereo not shown) [compound 77],6.18%
13,"CC[S+](CC)c1c([O-])[nH]c(=O)n(Cc2ccc(F)cc2)c1=O [compound 131, 5-(diethylsulfonio)-1-(4-fluorobenzyl)-2,6-dioxo-1,2,3,6-tetrahydro-4-pyrimidinolate]",3.65%
14,"COCc1cc(C)nc2sc(C(=O)Nc3cccc(OC)c3)c(N)c12 [compound 53, 3-amino-4-(methoxymethyl)-N-(3-methoxyphenyl)-6-methylthieno [2,3-b]pyridine-2-carboxamide]",7.94%
15,"Cc1nc(NC(=O)c2sc3ccccc3c2Cl)sc1C(=O)N(C)C [compound 10, 2-{[(3-chloro-1-benzothien-2-yl)carbonyl]amino}-N,N,4-trimethyl-1,3-thiazole-5-carboxamide]",45.82%
16,"COc1ccc(/C=C/c2nc(C#N)c(N3CCCCC3)o2)cc1OC [compound 128, 2-[2-(3,4-dimethoxyphenyl)vinyl]-5-(1-piperidinyl)-1,3-oxazole-4-carbonitrile]",3.74%
17,"Fc1ccc(C2CC(c3ccco3)n3ncnc3N2)cc1 (stereo not shown) [compound 23, 5-(4-fluorophenyl)-7-(2-furyl)-4,5,6,7-tetrahydro[1,2,4] triazolo[1,5-a]pyrimidine]",16.77%
18,"O=C(Nc1cccc(-c2nc3ncccc3o2)c1)c1ccccc1F [compound 96, 2-fluoro-N-(3-[1,3]oxazolo [4,5-b]pyridin-2-ylphenyl)benzamide]",4.92%
19,"Cc1cccn2c(=O)c3cc(C(=O)NC4CCCC4)sc3nc12 [compound 55, N-cyclopentyl-9-methyl-4-oxo-4H-pyrido[1,2-a]thieno[2,3-d] pyrimidine-2-carboxamide]",7.75%
20,"O=C(CSc1nnc(-c2ccc(Cl)cc2Cl)o1)N1CCCCC1 [compound 45, 1-({[5-(2,4-dichlorophenyl)-1,3,4-oxadiazol-2-yl]thio}acetyl)piperidine]",8.97%
21,"COc1cccc(C(=O)Nc2ccc(-c3nc4ncccc4o3)cc2C)c1 [compound 89, 3-methoxy-N-(2-methyl-4-[1,3]oxazolo [4,5-b]pyridin-2-ylphenyl)benzamide]",5.35%
22,COc1ccc(-c2cnc3ccccc3n2)cc1NC(=O)c1ccncc1 [compound 15],24.18%

row,Structure (SMILES),Avg Normalized % maximal activity
1,"O=C(C1CCCCC1)N1CCN(c2ccccn2)CC1 [compound 130, 1-(cyclohexylcarbonyl)-4-(2-pyridinyl)piperazine]",3.69%
2,"Br.Cc1ccnc(Nc2nc(-c3cccnc3)cs2)c1 [compound 146, 4-methyl-N-[4-(3-pyridinyl)-1,3-thiazol-2-yl]-2-pyridinamine hydrobromide]",2.97%
3,"COCCNCCOc1ccc(C(C)(C)C)cc1C.O=C(O)C(=O)O [compound 111, [2-(4-tert-butyl-2-methylphenoxy)ethyl](2-methoxyethyl)amine oxalate]",4.58%
4,"COc1ccc(Cl)cc1C(=O)Nc1cccc(-c2nnc(-c3ccco3)o2)c1 [compound 80, 5-chloro-N-{3-[5-(2-furyl)-1,3,4-oxadiazol-2-yl]phenyl}-2-methoxybenzamide]",5.99%
5,"O=C(Cc1cccc2ccccc12)Nc1nncs1 [compound 62, 2-(1-naphthyl)-N-1,3,4-thiadiazol-2-ylacetamide]",7.27%
6,"O=C(Nc1cccc(-c2nc3ncccc3o2)c1)c1ccc2c(c1)OCCO2 [compound 145, N-(3-[1,3]oxazolo[4,5-b]pyridin-2-ylphenyl)-2,3-dihydro-1,4-benzodioxine-6-carboxamide]",3.02%
7,"COCc1cc(C)nc2sc(C(=O)Nc3ccc(NC(C)=O)cc3)c(N)c12 [compound 162, N-[4-(acetylamino)phenyl]-3-amino-4-(methoxymethyl)-6-methylthieno [2,3-b]pyridine-2-carboxamide]",2.04%
8,"Cc1cc(-c2nc3ncccc3o2)ccc1NC(=O)c1ccco1 [compound 41, N-(2-methyl-4-[1,3]oxazolo[4,5-b]pyridin-2-ylphenyl)-2-furamide]",10.28%
9,"COc1ccc(Cl)cc1C(=O)Nc1cc(C)ccn1 [compound 152, 5-chloro-2-methoxy-N-(4-methyl-2-pyridinyl)benzamide]",2.56%
10,"O=C(Nc1ccc(-c2nnc(-c3ccccc3)o2)cc1)C1CCCO1 (stereo not shown) [compound 42, N-[4-(5-phenyl-1,3,4-oxadiazol-2-yl)phenyl]tetrahydro-2-furancarboxamide]",10.16%
11,"O=C(Nc1ccc(-c2nc3ccccc3o2)cc1)C1CCCO1 (stereo not shown) [compound 49, N-[4-(1,3-benzoxazol-2-yl)phenyl]tetrahydro-2-furancarboxamide]",8.36%
12,"CN1CCN(S(=O)(=O)c2ccc(C(=O)Nc3ccccc3)cc2)CC1 [compound 155, 4-[(4-methyl-1-piperazinyl)sulfonyl]-N-phenylbenzamide]",2.20%
13,"O=C(Nc1ccc(-c2nnc(-c3ccccc3)o2)cc1)c1ccco1 [compound 30, N-[4-(5-phenyl-1,3,4-oxadiazol-2-yl)phenyl]-2-furamide]",13.43%
14,"Cc1cccc(N2C(=O)CC(NC3CCCC3)C2=O)c1 (stereo not shown) [compound 104, 3-(cyclopentylamino)-1-(3-methylphenyl)-2,5-pyrrolidinedione]",4.72%
15,"Cc1cc(C)nc(NC(=O)c2cc3c(s2)CCCC3)n1 [compound 139, N-(4,6-dimethyl-2-pyrimidinyl)-4,5,6,7-tetrahydro-1-benzothiophene-2-carboxamide]",3.27%
16,"CC(=O)c1ccc(NC(=O)CSc2nnc3c4ccccc4n(C)c3n2)cc1 [compound 143, N-(4-acetylphenyl)-2-[(5-methyl-5H-[1,2,4]triazino [5,6-b]indol-3-yl)thio]acetamide]",3.07%
17,"CCOc1ccccc1C(=O)Nc1nc(C)c(C(=O)N(C)C)s1 [compound 83, 2-[(2-ethoxybenzoyl)amino]-N,N,4-trimethyl-1,3-thiazole-5-carboxamide]",5.75%
18,"O=C(Nc1cccc(NC(=O)c2ccco2)c1)c1cccc(Br)c1 [compound 76, N-{3-[(3-bromobenzoyl)amino]phenyl}-2-furamide]",6.23%
19,CNC[C@H](O)[C@@H](O)[C@H](O)[C@H](O)CO [compound 109],4.65%
20,"Cn1nc(-c2ccc(C(=O)N3CCCCC3)cc2)c2ccccc2c1=O [compound 59, 2-methyl-4-[4-(1-piperidinylcarbonyl)phenyl]-1(2H)-phthalazinone]",7.59%
21,"CCc1cccc(C)c1NS(=O)(=O)c1cccs1 [compound 36, N-(2-ethyl-6-methylphenyl)-2-thiophenesulfonamide]",11.14%
